Results on five compounds are retold here after article PMC5537056 (Leukemia, 2016).

Common to all, as to assay type: cell-based
One series concerns RPMI8226. The series is described as follows: Viability assay by flow cytometry. Particulars: read-out: LC50 (Viability); RPMI8226, 48 hrs.
In a further series the test system is KMS11. The experiment in a line: Viability assay by flow cytometry. Particulars: read-out: LC50 (Viability); KMS11, 48 hrs.
In the next series the test system is U266. The series is described as follows: Viability assay by flow cytometry.
The next series concerns MM1.S. The series is described as follows: Viability assay by flow cytometry.
In series [1] the test system is MM cell lines (RPMI8226, U266, MM1.S, KMS11). The experiment in a line: Viability assays, range over the four MM cell lines. The settings on record: read-out: LC50, range over MM cell lines.
Series [2] shares this test system. The series is described as follows: Proliferation assays, range over the four MM cell lines. Particulars: read-out: GI50, range over MM cell lines.
Another series relates to PIM2 expression in U266. The experiment in a line: Western blot of PIM2 protein expression. Particulars: U266, IL-6 25 ng/ml.
The next series has as its system PIM2 expression in MM1.S. The experiment in a line: Western blot of PIM2 protein expression. Particulars: IL-6 25 ng/ml.
Setting [3] is: Homo sapiens, MM1.S, 48 h, read-out: cell viability.

`N[C@@H]1CCCN(c2c(/C=C3\SC(=O)NC3=O)cccc2-c2ccccc2)C1` [AZD1208]: the CC50 with RPMI8226 was 30 µM; with KMS11 it was 31.3 µM; in the series on U266 (read-out: LC50 (Viability), U266, 48 hrs), 56.6 µM; with MM1.S (read-out: LC50 (Viability), MM1S, 48 hrs), 23.7 µM; in series [1], 23 to 56 µM. The GI50 in series [2] is 0.7 to 4.7 µM.

As to `CC(C)C[C@H](NC(=O)[C@H](Cc1ccccc1)NC(=O)c1cnccn1)B(O)O` [bortezomib], the viability at 0.0015 µM with MM1.S (setting [3]) came to 18%.

For the compound `C[C@@H]1C[C@H]2[C@@H]3CCC4=CC(=O)C=C[C@]4(C)[C@@]3(F)[C@@H](O)C[C@]2(C)[C@@]1(O)C(=O)CO` [dexamethasone], the viability at 5 µM in the series on MM1.S (setting [3]) turned out to be 55%.

`N[C@@H](Cc1ccc(N(CCCl)CCCl)cc1)C(=O)O` [melphalan]: in the series with U266 (Homo sapiens, U-266, read-out: cell viability), the viability at 4 µM came out at 58%. Also, in the series with MM1.S (setting [3]), the viability at 2 µM worked out at 36%.

Take “rIL-6: Recombinant IL-6 purchased from R&D Systems”: the “upregulation of PIM2” value in the series with PIM2 expression in U266 is 1.3 fold; with PIM2 expression in MM1.S, 3.2 fold.
